Test results published in US11679168B2, “Caspase-3-triggered molecular self-assembling PET probes and uses thereof” (The Board of Trustees of the Leland Stanford Junior …, priority 2018, dated 2023).

Tests used:
[1] = Ex vivo biodistribution in H460 tumor-bearing mice; conditions: 2 h post injection
Method: FIG. 20 illustrates biodistribution of [^18F]-C-SNAT4 in H460 tumor-bearing female nude mice. Mice were administered approximately 200 μCi [^18F]-C-SNAT4, animal were exsanguinated through the left ventricle and indicated tissues were excised at 2 hours post-injection in mice bearing naïve-tumor (black) or drug-treated tumor (gray). Data represent the mean±S.D. (n=4 animals per groups)
Biodistribution study: H460 or H1299 tumor-bearing female nude mice were administered approximately 7.4 MBq of [^18F]-C-SNAT4 via the tail vein (n=4-5 per group). Mice were maintained under anesthesia and warmed to 37° C. to replicate imaging conditions. At 90 min after [^18F]-C-SNAT4 injection, animals were sacrificed by exsanguination via cardiac puncture. For all animals, tumors were excised immediately upon death, weighed using pre-weighted tubes, and rapidly placed in 10% formalin (Fisher Scientific) for fixation. Tumor and tissue decay-corrected radioactivity was subsequently determined using a Cobra II Auto-Gamma counter (Packard Biosciences Co, UK.) Predefined 1.85 MBq (50 μCi) standards (50 μl) were also counter for data normalization to injected dose. Data were expressed as percent injected dose per gram of tissue (% ID/g).

[2] = Blood half-life in healthy nude mice after intravenous injection; format: in vivo
Excerpt: FIG. 21 illustrates blood half-life in healthy nude mice after intravenous injection of [^18F]-C-SNAT4 (n=4).

H1299 tumor = experiment: PET/CT imaging of H1299 tumor-bearing mice; format: in vivo; conditions: for radioactivity retention in tumor: 85 min post-injection
Method: (§1) FIGS. 4A and 4D illustrate representative 55- to 60-min axial and sagittal fused PET/CT images. Nude mice received approximately 200 μCi of [18F]-C-SNAT4 via tail vein injection, with PET/CT images acquired at 55 to 60 min after injection. Arrowheads indicate the tumor, identified from the CT images. H460 and H1299 tumor bearing mice were naïve, or 24 h following last dose of cisplatin treatment (Low dose: 3 mg/kg every other day for three times; high dose: 9 mg/kg every other day for three times).
(§2) Animal model and probe administration: For subcutaneous tumor models, H460 or H1299 (2×10^6 cells in 100 μl of PBS) were injection subcutaneously on the back of female nu/nu nude mice (aged 6 to 8 weeks; Charles River Laboratories). Tumor dimensions were measured periodically using a caliper (by the same researcher), with tumor volumes calculated by the following equation: volume=a×b×c/2, where a, b, and c represent three orthogonal axis of the tumor. Treatment-response analysis was performed 24 h after drug treatment. For all other experiments, animals were culled 26 h after therapy and tissues excised for analysis. For chemotherapy mouse model, tumors were grown to about 150 mm^3, and then treatment that consisted of cisplatin (Sigma-Aldrich; Low dose: 3 mg/kg; high dose: 9 mg/kg) or saline was initiated through intravenous administration, every other day for three times. Total mouse body weight and tumor size were measured every other day. Treat or left untreated. For radiotherapy mouse model, treatment consisted of two fractions of 5 Gy or 2 Gy dose of radiation therapy delivered with a single 225 kV beam using the Kimtron IC 225 irradiator (Kimtron Medical, CT, USA).
(§3) Small-animal PET/CT imaging and analysis: PET/CT imaging was carried out on a docked Siemens Inveon PET/CT scanner (matrix size, 128×128×159; CT attenuation-corrected; non-scatter corrected) (Siemens Medical Solutions USA) following a bolus intravenous injection of approximately 200 μCi of [^18F]-C-SNAT4 into tumor-bearing mice (n=56, 3-4 mice per group). Dynamic scans were acquired in list mode format over 90 min, and sorted into 22 times of frames, 0.5-mm sinogram bins for image reconstruction (4×15 s, 4×60 s, 11×300 s, 3×600 s). Mice were anesthetized with 2% isoflurane near the center of the FOV to ensure the highest image resolution and sensitivity. Iterative reconstruction was performed using 3D ordered-subsets expectation maximization (3D-OSEM) followed by fast maximum a posteriori (fast MAP) with the following parameters: MAP OSEM iterations, 2; MAP subsets, 16; MAP iterations, 18. Siemens Inveon Research Workplace software v.4.0 was used for visualization of radiotracer uptake in the tumor, to define the three-dimensional (3D) volumes of interest (VOI) and for 3D-visualisation to create volume rendering technique (VRT) images. The relative tumor or organ radioactivity concentrations were from mean pixel values within the multiple ROI volumes. The radioactivity concentration within organs was obtained from mean pixel values with in the VOI and converted to counts per milliliter per min and then divided by the injected dose (ID) to obtain an imaging VOI-derived percentage of the injected radioactive dose per cubic centimeter of tissue (% ID/cc).

H460 tumor = experiment: PET/CT imaging of H460 tumor-bearing mice; format: in vivo
Method: as §1, §2, §3

[3] = H460, 2 Gy-treated tumor, [18F]-C-SNAT4 only

CCSSCC(NC(=O)C(CC(=O)O)NC(=O)C(NC(=O)C(CCC(=O)O)NC(=O)C(CC(=O)O)NC(C)=O)C(C)C)C(=O)NCC(=O)NC(Cc1cn(CCOCCOCCOCC[18F])nn1)C(=O)NCc1ccc(C(=O)NCCCOc2cnc(C#N)nc2)cc1 (stereo not drawn) [[^18F]-C-SNAT4]
clearance route [1]: predominantly renal clearance | elimination from the blood ([2]; by 2 h after administration): nearly complete elimination | peak blood concentration ([2]; healthy nude mice, after 5 min): 15.21±2.66 % ID/g | blood life ([2]; healthy nude mice, i.v.): 0.4 ± 0.1 h | blood half-life ([2]; healthy nude mice, i.v., n=4): 21.6 ± 6.6 min | AUC of time activity curve (H1299 tumor; H1299, high doses cisplatin): 64.2±27.8 % ID min/cc | radioactivity retention in tumor (H1299 tumor; H1299, high doses cisplatin): 0.5±0.3 % ID/cc | AUC of time activity curve (H1299 tumor; H1299, low doses cisplatin): 66.0±6.8 % ID min/cc | radioactivity retention in tumor (H1299 tumor; H1299, low doses cisplatin): 0.4±0.2 % ID/cc | AUC of time activity curve (H1299 tumor; H1299, saline): 41.2±25.4 % ID min/cc | radioactivity retention in tumor (H1299 tumor; H1299, saline): 0.4±0.1 % ID/cc | AUC of time activity curve (H460 tumor; [3]): 123.6±30.9 % ID min/cc | tumor uptake (H460 tumor; [3]): 1.2±0.3 % ID/cc | AUC of time activity curve (H460 tumor; H460, 5 Gy-treated, hot tracer only, t=0 to 85 min): 279.4±16.6 % ID min/cc | tumor uptake (H460 tumor; H460, high dose cisplatin (9 mg/kg x3) treated, 85 min post-injection): 1.7±0.1 % ID/cc | AUC of time activity curve (H460 tumor; H460, high dose cisplatin treated, t=0 to 85 min): 148.9±10.1 % ID min/cc | tumor uptake (H460 tumor; H460, low dose cisplatin (3 mg/kg x3) treated, 85 min post-injection): 1.2±0.1 % ID/cc | AUC of time activity curve (H460 tumor; H460, low dose cisplatin treated, t=0 to 85 min): 116.7±6.0 % ID min/cc | AUC of time activity curve (H460 tumor; H460, naive tumor, t=0 to 85 min): 67.5±12.0 % ID min/cc | tumor uptake (H460 tumor; H460, naïve animals, 85 min post-injection): 0.7±0.11 % ID/cc | AUC of time activity curve (H460 tumor; H460, naïve tumors (2 Gy experiment)): 92.1±20.9 % ID min/cc | tumor uptake (H460 tumor; H460, two fractions of 5 Gy, hot tracer only, 85 min post injection): 1.0±0.3 % ID/cc | tumor uptake (H460 tumor; H460, untreated tumor (2 Gy experiment)): 0.8±0.1 % ID/cc | tumor uptake (H460 tumor; H460, untreated tumor, hot tracer (mixture comparison), 85 min): 0.4±0.1 % ID/cc
